Legend:
ROCK 1 (Rho kinase 1) = ROCK 1 (Rho kinase 1) (Homo sapiens, UniProt Q13464); test: In vitro inhibitory activity assay (ADP-Glo), Rho kinase 1; assay type: biochemical; conditions: Ki by Cheng-Prusoff from IC50; 10 μM ATP, 25° C.
Experimental: (§1) In Vitro Inhibitory Activity Assay Description
(§2) The effectiveness of compounds of the present invention to inhibit Rho kinase activity can be determined in a 10 μl assay containing 40 mM Tris pH7.5, 20 mM MgCl2 0.1 mg/ml BSA, 50 μM DTT and 2.5 μM peptide substrate (Myelin Basic Protein) using an ADP-Glo kit (Promega). Compounds were dissolved in DMSO such that the final concentration of DMSO was 1% in the assay. All reactions/incubations are performed at 25° C. Compound (2 μl) and either Rho kinase 1 or 2 (4 μl) were mixed and incubated for 30 mins. Reactions were initiated by addition of ATP (4 μl) such that the final concentration of ATP in the assay was 10 μM. After a 1 hour incubation 10 μl of ADP-Glo Reagent was added and after a further 45 minute incubation 20 μl of Kinase Detection Buffer was added and the mixture incubated for a further 30 minutes. The luminescent signal was measured on a luminometer. […] Compounds were tested in dose-response format and the inhibition of kinase activity was calculated at each concentration of compound. To determine the IC50 (concentration of compound required to inhibit 50% of the enzyme activity) data were fit to a plot of % inhibition vs Log10 compound concentration using a sigmoidal fit with a variable slope and fixing the maximum to 100% and the minimum to 0%. To determine the Ki values the Cheng-Prusoff equation was utilized (Ki=IC50/(1+[S]/Km).

ROCK 2 (Rho kinase 2) = ROCK 2 (Rho kinase 2) (Homo sapiens, UniProt O75116); test: In vitro inhibitory activity assay (ADP-Glo), Rho kinase 2; assay type: biochemical; conditions: Ki by Cheng-Prusoff from IC50; 10 μM ATP, 25° C.
Experimental: as §1, §2

Chain of ROCK 2 (Rho kinase 2) (O75116 whole entry): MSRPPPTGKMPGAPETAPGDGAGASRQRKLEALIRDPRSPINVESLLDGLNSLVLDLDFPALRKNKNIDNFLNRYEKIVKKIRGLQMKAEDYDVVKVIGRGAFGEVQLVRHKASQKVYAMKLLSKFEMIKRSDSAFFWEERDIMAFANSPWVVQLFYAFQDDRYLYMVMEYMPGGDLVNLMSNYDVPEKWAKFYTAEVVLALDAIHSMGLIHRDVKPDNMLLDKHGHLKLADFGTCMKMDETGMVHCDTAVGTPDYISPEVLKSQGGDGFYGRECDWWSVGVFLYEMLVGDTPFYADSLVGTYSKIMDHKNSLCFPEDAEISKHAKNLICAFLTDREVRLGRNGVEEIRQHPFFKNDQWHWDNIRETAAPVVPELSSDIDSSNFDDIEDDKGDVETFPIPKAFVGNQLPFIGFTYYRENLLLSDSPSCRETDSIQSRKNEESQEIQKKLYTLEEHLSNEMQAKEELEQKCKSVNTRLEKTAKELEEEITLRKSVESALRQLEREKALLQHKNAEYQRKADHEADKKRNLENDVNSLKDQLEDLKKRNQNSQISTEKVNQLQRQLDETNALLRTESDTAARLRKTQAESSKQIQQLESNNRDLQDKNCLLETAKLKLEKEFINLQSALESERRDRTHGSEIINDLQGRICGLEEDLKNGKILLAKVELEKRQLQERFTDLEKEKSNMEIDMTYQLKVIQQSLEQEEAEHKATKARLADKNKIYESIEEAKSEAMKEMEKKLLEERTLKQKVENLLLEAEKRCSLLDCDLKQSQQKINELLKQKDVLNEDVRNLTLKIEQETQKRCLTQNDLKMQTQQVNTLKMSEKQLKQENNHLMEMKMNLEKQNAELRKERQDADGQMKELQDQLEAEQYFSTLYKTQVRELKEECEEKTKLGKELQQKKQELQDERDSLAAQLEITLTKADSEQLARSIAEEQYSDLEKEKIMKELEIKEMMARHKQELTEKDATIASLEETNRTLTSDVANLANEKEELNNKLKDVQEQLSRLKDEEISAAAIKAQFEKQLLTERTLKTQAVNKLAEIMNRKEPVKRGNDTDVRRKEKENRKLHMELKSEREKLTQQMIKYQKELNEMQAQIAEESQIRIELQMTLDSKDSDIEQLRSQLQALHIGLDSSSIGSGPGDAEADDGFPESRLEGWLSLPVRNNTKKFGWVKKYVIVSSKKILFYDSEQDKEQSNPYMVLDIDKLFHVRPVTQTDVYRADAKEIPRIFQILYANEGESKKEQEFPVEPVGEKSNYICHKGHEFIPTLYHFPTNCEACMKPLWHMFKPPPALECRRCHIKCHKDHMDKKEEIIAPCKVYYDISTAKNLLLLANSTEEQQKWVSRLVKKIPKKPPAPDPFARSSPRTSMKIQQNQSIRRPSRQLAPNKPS
Chain of ROCK 1 (Rho kinase 1) (Q13464 whole entry): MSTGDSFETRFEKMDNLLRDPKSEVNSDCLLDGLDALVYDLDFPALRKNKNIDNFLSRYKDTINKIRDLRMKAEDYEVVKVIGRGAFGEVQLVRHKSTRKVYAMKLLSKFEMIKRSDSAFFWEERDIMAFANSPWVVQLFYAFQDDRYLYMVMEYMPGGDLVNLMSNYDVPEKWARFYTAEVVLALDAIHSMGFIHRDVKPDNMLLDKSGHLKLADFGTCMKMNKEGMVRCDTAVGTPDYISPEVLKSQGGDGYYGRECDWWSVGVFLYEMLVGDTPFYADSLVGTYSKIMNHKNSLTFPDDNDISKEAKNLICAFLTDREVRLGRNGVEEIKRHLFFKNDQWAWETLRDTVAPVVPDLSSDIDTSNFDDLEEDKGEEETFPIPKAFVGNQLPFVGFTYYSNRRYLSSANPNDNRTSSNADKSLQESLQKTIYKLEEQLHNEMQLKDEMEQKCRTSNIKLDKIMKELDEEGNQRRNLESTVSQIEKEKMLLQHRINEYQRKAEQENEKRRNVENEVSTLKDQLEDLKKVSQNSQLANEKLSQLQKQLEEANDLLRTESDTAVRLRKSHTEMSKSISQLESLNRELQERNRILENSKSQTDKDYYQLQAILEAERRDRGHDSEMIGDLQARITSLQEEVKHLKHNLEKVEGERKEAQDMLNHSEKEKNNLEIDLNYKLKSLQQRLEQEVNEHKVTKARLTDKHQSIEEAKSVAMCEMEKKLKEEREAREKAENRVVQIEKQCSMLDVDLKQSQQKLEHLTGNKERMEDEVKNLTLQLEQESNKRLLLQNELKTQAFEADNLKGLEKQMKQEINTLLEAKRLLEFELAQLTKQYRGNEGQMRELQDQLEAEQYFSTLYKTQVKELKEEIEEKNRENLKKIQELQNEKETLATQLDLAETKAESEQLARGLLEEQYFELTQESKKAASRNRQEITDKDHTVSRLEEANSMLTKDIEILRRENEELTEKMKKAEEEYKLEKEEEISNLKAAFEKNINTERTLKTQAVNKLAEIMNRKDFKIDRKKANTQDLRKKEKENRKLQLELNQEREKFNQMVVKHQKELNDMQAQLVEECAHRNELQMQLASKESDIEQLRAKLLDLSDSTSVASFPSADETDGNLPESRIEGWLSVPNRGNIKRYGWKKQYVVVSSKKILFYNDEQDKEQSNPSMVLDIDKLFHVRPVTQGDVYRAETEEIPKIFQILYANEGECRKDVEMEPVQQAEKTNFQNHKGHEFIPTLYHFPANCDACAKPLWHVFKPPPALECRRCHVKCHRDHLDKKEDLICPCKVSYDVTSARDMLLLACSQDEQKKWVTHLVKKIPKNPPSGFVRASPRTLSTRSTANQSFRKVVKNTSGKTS

Ki (ROCK 1 (Rho kinase 1)) [nM]	Ki (ROCK 2 (Rho kinase 2)) [nM]	Compound
< 3	< 3	Cc1c[nH]c2nccc(Oc3ccc(C[C@H](N)C(=O)N4C[C@@H]5CN(C6CC6)C[C@@H]5C4)cc3F)c12 [Example 12, (S)-2-Amino-1-((3aR,6aS)-5-cyclopropylhexahydropyrrolo[3,4-c]pyrrol-2(1H)-yl)-3-(3-fluoro-4-((3-methyl-1H-pyrrolo[2,3-b]pyridin-4-yl)oxy)phenyl)propan-1-one]
< 3	< 3	Cc1c[nH]c2nccc(Oc3ccc(C[C@H](N)C(=O)N4CCC(NC5CC5)CC4)cc3F)c12 [Example 19, (S)-2-Amino-1-(4-(cyclopropylamino)piperidin-1-yl)-3-(3-fluoro-4-((3-methyl-1H-pyrrolo[2,3-b]pyridin-4-yl)oxy)phenyl)propan-1-one]
< 3	< 3	Cc1c[nH]c2nccc(Oc3ccc(C[C@H](N)C(=O)N4CCc5cnccc5C4)cc3F)c12 [Example 25, (S)-2-Amino-1-(3,4-dihydro-2,6-naphthyridin-2(1H)-yl)-3-(3-fluoro-4-((3-methyl-1H-pyrrolo[2,3-b]pyridin-4-yl)oxy)phenyl)propan-1-one]
< 3	< 3	Cc1c[nH]c2ncnc(Oc3ccc(C[C@H](N)C(=O)N4CCC(S(=O)(=O)c5ccc(F)cc5)CC4)cc3F)c12 [Example 37, (S)-2-Amino-3-(3-fluoro-4-((5-methyl-7H-pyrrolo[2,3-d]pyrimidin-4-yl)oxy)phenyl)-1-(4-((4-fluorophenyl)sulfonyl)piperidin-1-yl)propan-1-one]
< 3	< 3	Cc1c[nH]c2nccc(Oc3ccc(C[C@H](N)C(=O)NC4CCN(C)CC4(C)C)cc3F)c12 (single isomer, unassigned) [Example 8b]
3 to 30	< 3	Cc1c[nH]c2ncnc(Oc3ccc(C[C@H](N)C(=O)NC4(C(N)=O)CCCCC4)cc3F)c12 [Example 32, (S)-1-(2-amino-3-(3-fluoro-4-((5-methyl-7H-pyrrolo[2,3-d]pyrimidin-4-yl)oxy)phenyl)propanamido)cyclohexanecarboxamide]
< 3	< 3	Cc1c[nH]c2ncnc(Oc3ccc(C[C@H](N)C(=O)NC4(CCO)CCCCC4)cc3F)c12 [Example 34, (S)-2-amino-3-(3-fluoro-4-((5-methyl-7H-pyrrolo[2,3-d]pyrimidin-4-yl)oxy)phenyl)-N-(1-(2-hydroxyethyl)cyclohexyl)propanamide]
< 3	< 3	Cc1c[nH]c2nccc(Oc3ccc(C[C@H](N)C(=O)NC4CCN(CC5CC5)CC4)cc3F)c12 [Example 16, (S)-2-Amino-N-(1-(cyclopropylmethyl)piperidin-4-yl)-3-(3-fluoro-4-((3-methyl-1H-pyrrolo[2,3-b]pyridin-4-yl)oxy)phenyl)propanamide]
< 3	< 3	Cc1c[nH]c2ncnc(Oc3ccc(C[C@H](N)C(=O)NC4(CO)CCCCC4)cc3F)c12 [Example 35, (S)-2-Amino-3-(3-fluoro-4-((5-methyl-7H-pyrrolo[2,3-d]pyrimidin-4-yl)oxy)phenyl)-N-(1-(hydroxymethyl)cyclohexyl)propanamide]
< 3	< 3	CCN1CCC(NC(=O)[C@@H](N)Cc2ccc(Oc3ccnc4[nH]cc(C)c34)c(F)c2)CC1 [Example 7, (S)-2-Amino-N-(1-ethylpiperidin-4-yl)-3-(3-fluoro-4-((3-methyl-1H-pyrrolo[2,3-b]pyridin-4-yl)oxy)phenyl)propanamide]
3 to 30	< 3	Cc1c[nH]c2nccc(Oc3ccc(C[C@H](N)C(=O)N4CCN(C)CC45CC5)cc3F)c12 [Example 11, (S)-2-Amino-3-(3-fluoro-4-((3-methyl-1H-pyrrolo[2,3-b]pyridin-4-yl)oxy)phenyl)-1-(7-methyl-4,7-diazaspiro[2.5]octan-4-yl)propan-1-one]
3 to 30	< 3	Cc1c[nH]c2ncnc(Oc3ccc(C[C@H](N)C(=O)NC4(CO)CCOCC4)cc3F)c12 [Example 36, (S)-2-Amino-3-(3-fluoro-4-((5-methyl-7H-pyrrolo[2,3-d]pyrimidin-4-yl)oxy)phenyl)-N-(4-(hydroxymethyl)tetrahydro-2H-pyran-4-yl)propanamide]
3 to 30	< 3	Cc1c[nH]c2nccc(Oc3ccc(C[C@H](N)C(=O)N(C)C)cc3F)c12 [Example 45, (S)-2-amino-3-(3-fluoro-4-((3-methyl-1H-pyrrolo[2,3-b]pyridin-4-yl)oxy)phenyl)-N,N-dimethylpropanamide]
< 3	< 3	Cc1c[nH]c2nccc(Oc3ccc(C[C@H](N)C(=O)N4CCc5ncsc5C4)cc3F)c12 [Example 24, (S)-2-Amino-1-(6,7-dihydrothiazolo[5,4-c]pyridin-5(4H)-yl)-3-(3-fluoro-4-((3-methyl-1H-pyrrolo[2,3-b]pyridin-4-yl)oxy)phenyl)propan-1-one]
< 3	< 3	COCCN1CCC(NC(=O)[C@@H](N)Cc2ccc(Oc3ccnc4[nH]cc(C)c34)c(F)c2)CC1 [Example 14, (S)-2-Amino-3-(3-fluoro-4-((3-methyl-1H-pyrrolo[2,3-b]pyridin-4-yl)oxy)phenyl)-N-(1-(2-methoxyethyl)piperidin-4-yl)propanamide]
< 3	< 3	Cc1c[nH]c2nccc(Oc3ccc(C[C@H](N)C(=O)NC4CCN(C)CC4(C)C)cc3F)c12 (single isomer, unassigned) [Example 8a]
< 3	< 3	Cc1c[nH]c2nccc(Oc3ccc(C[C@H](N)C(=O)NC4(C(=O)NCCO)CCCCC4)cc3F)c12 [Example 44, (S)-1-(2-amino-3-(3-fluoro-4-((3-methyl-1H-pyrrolo[2,3-b]pyridin-4-yl)oxy)phenyl)propanamido)-N-(2-hydroxyethyl)cyclohexanecarboxamide]
< 3	< 3	Cc1c[nH]c2nccc(Oc3ccc(C[C@H](N)C(=O)N4CCc5cncnc5C4)cc3F)c12 [Example 23, (S)-2-Amino-1-(5,8-dihydropyrido[3,4-d]pyrimidin-7(6H)-yl)-3-(3-fluoro-4-((3-methyl-1H-pyrrolo[2,3-b]pyridin-4-yl)oxy)phenyl)propan-1-one]
< 3	< 3	Cc1c[nH]c2nccc(Oc3ccc(C[C@H](N)C(=O)NC4CCN(C5COC5)CC4)cc3F)c12 [Example 3, (S)-2-Amino-3-(3-fluoro-4-((3-methyl-1H-pyrrolo[2,3-b]pyridin-4-yl)oxy)phenyl)-N-(1-(oxetan-3-yl)piperidin-4-yl)propanamide]
< 3	< 3	Cc1c[nH]c2nccc(Oc3ccc(C[C@H](N)C(=O)N4C[C@@H]5C[C@H]4CN5C4CC4)cc3F)c12 [Example 13, (S)-2-Amino-1-((1S,4S)-5-cyclopropyl-2,5-diazabicyclo[2.2.1]heptan-2-yl)-3-(3-fluoro-4-((3-methyl-1H-pyrrolo[2,3-b]pyridin-4-yl)oxy)phenyl)propan-1-one]
< 3	< 3	Cc1c[nH]c2ncnc(Oc3c(F)cc(C[C@H](N)C(=O)N4CCC(S(=O)(=O)c5ccccc5)CC4)cc3F)c12 [Example 41, (S)-2-Amino-3-(3,5-difluoro-4-((5-methyl-7H-pyrrolo[2,3-d]pyrimidin-4-yl)oxy)phenyl)-1-(4-(phenylsulfonyl)piperidin-1-yl)propan-1-one]
3 to 30	3 to 30	Cc1c[nH]c2nccc(Oc3ccc(C[C@H](N)C(=O)NC4CCCN(C)C4)cc3F)c12 (single isomer, unassigned) [Example 18]
< 3	< 3	Cc1c[nH]c2nccc(Oc3ccc(C[C@H](N)C(=O)NC4CCN(CCCF)CC4)cc3F)c12 [Example 15, (S)-2-Amino-3-(3-fluoro-4-((3-methyl-1H-pyrrolo[2,3-b]pyridin-4-yl)oxy)phenyl)-N-(1-(3-fluoropropyl)piperidin-4-yl)propanamide]
< 3	< 3	COCCNC(=O)C1(NC(=O)[C@@H](N)Cc2ccc(Oc3ccnc4[nH]cc(C)c34)c(F)c2)CCCCC1 [Example 43, (S)-1-(2-amino-3-(3-fluoro-4-((3-methyl-1H-pyrrolo[2,3-b]pyridin-4-yl)oxy)phenyl)propanamido)-N-(2-methoxyethyl)cyclohexanecarboxamide]
< 3	< 3	Cc1c[nH]c2nccc(Oc3ccc(C[C@H](N)C(=O)N4CCc5ccncc5C4)cc3F)c12 [Example 22, (S)-2-Amino-1-(3,4-dihydro-2,7-naphthyridin-2(1H)-yl)-3-(3-fluoro-4-((3-methyl-1H-pyrrolo[2,3-b]pyridin-4-yl)oxy)phenyl)propan-1-one]
< 3	< 3	Cc1c[nH]c2nccc(Oc3ccc(C[C@H](N)C(N)=O)cc3F)c12 [Example 47, (S)-2-amino-3-(3-fluoro-4-((3-methyl-1H-pyrrolo[2,3-b]pyridin-4-yl)oxy)phenyl)propanamide]
< 3	< 3	Cc1c[nH]c2nccc(Oc3ccc(C[C@H](N)C(=O)NC4(C(N)=O)CCC4)cc3F)c12 [Example 27, (S)-1-(2-Amino-3-(3-fluoro-4-((3-methyl-1H-pyrrolo[2,3-b]pyridin-4-yl)oxy)phenyl)propanamido)cyclobutane-1-carboxamide]

Source: patent publication US20210284639A1, “TYROSINE AMIDE DERIVATIVES AS RHO- KINASE INHIBITORS” (CHIESI FARMACEUTICI S.p.A., priority 2018, published 2021)
